Measurements from patent US10597380B2, “Pyridazinone-based broad spectrum anti-influenza inhibitors” (Hoffmann-La Roche Inc., priority 2017, dated 2020).

System: Influenza A/WSN/33-Luciferase virus
Assay: microbe, parasite or virus in culture
Format: cell-based
Settings: A549, 72 h, luciferase signal three days later, read-out: IC50 antiviral activity (Luciferase reporter assay)

Row | Compound | IC50 [nM]
1 | Cn1cccc(Nc2nn(-c3ccc(OC(F)(F)F)cc3)c(=O)c3ccccc23)c1=O [Example 1, 4-[(1-methyl-2-oxo-3-pyridyl)amino]-2-[4-(trifluoromethoxy)phenyl]phthalazin-1-one] | 22
2 | O=c1[nH]cccc1Nc1nn(-c2ccc(OC(F)(F)F)cc2)c(=O)c2ccccc12 [Example 2, 4-[(2-oxo-1H-pyridin-3-yl)amino]-2-[4-(trifluoromethoxy)phenyl]phthalazin-1-one] | 54
3 | COC(=O)Cn1cccc(Nc2nn(-c3ccc(OC(F)(F)F)cc3)c(=O)c3ccccc23)c1=O [Example 3, methyl 2-[2-oxo-3-[[4-oxo-3-[4-(trifluoromethoxy)phenyl]phthalazin-1-yl]amino]-1-pyridyl]acetate] | 38
4 | COC(=O)C(C)(C)Cn1cccc(Nc2nn(-c3ccc(OC(F)(F)F)cc3)c(=O)c3ccccc23)c1=O [Example 4, methyl 2,2-dimethyl-3-[2-oxo-3-[[4-oxo-3-[4-(trifluoromethoxy)phenyl]phthalazin-1-yl]amino]-1-pyridyl]propanoate] | 489
5 | CCOC(=O)COCCn1cccc(Nc2nn(-c3ccc(OC(F)(F)F)cc3)c(=O)c3ccccc23)c1=O [Example 5, ethyl 2-[2-[2-oxo-3-[[4-oxo-3-[4-(trifluoromethoxy)phenyl]phthalazin-1-yl]amino]-1-pyridyl]ethoxy]acetate] | 485
6 | COC(=O)[C@H]1CCCN1CCn1cccc(Nc2nn(-c3ccc(OC(F)(F)F)cc3)c(=O)c3ccccc23)c1=O [Example 6, methyl (2R)-1-[2-[2-oxo-3-[[4-oxo-3-[4-(trifluoromethoxy)phenyl]phthalazin-1-yl]amino]-1-pyridyl]ethyl]pyrrolidine-2-carboxylate] | 52
7 | Cc1cc(OC(F)(F)F)ccc1-n1nc(Nc2cccn(C)c2=O)c2ccccc2c1=O [Example 7, 4-[(1-methyl-2-oxo-3-pyridyl)amino]-2-[2-methyl-4-(trifluoromethoxy)phenyl]phthalazin-1-one] | 4340
8 | Cn1cccc(Nc2nn(-c3ccc(C(C)(C)C)nc3)c(=O)c3ccccc23)c1=O [Example 8, 2-(6-tert-butyl-3-pyridyl)-4-[(1-methyl-2-oxo-3-pyridyl)amino]phthalazin-1-one] | 73
9 | Cn1cccc(Nc2nn(-c3cnc(C(C)(C)C)nc3)c(=O)c3ccccc23)c1=O [Example 9, 2-(2-tert-butylpyrimidin-5-yl)-4-[(1-methyl-2-oxo-3-pyridyl)amino]phthalazin-1-one] | 275
10 | Cn1cccc(Nc2nn(-c3ccc(C4(C)COC4)cc3)c(=O)c3ccccc23)c1=O [Example 10, 2-[4-(3-methyloxetan-3-yl)phenyl]-4-[(1-methyl-2-oxo-3-pyridyl)amino]phthalazin-1-one] | 259
11 | Cn1cccc(Nc2nn(-c3ccc(C4COC4)cc3)c(=O)c3ccccc23)c1=O [Example 11, 4-[(1-methyl-2-oxo-3-pyridyl)amino]-2-[4-(oxetan-3-yl)phenyl]phthalazin-1-one] | 2010
12 | Cn1cccc(Nc2nn(-c3ccc(C4CC4)cc3)c(=O)c3ccccc23)c1=O [Example 12, 2-(4-cyclopropylphenyl)-4-[(1-methyl-2-oxo-3-pyridyl)amino]phthalazin-1-one] | 407
13 | COCCOc1ccc(-n2nc(Nc3cccn(C)c3=O)c3ccccc3c2=O)cc1 [Example 13, 2-[4-(2-methoxyethoxy)phenyl]-4-[(1-methyl-2-oxo-3-pyridyl)amino]phthalazin-1-one] | 1510
14 | Cn1cccc(Nc2nn(-c3ccc(C(C)(C)C)cc3)c(=O)c3ccccc23)c1=O [Example 14, 2-(4-tert-butylphenyl)-4-[(1-methyl-2-oxo-3-pyridyl)amino]phthalazin-1-one] | 109
15 | CC(C)(C)c1ccc(-n2nc(Nc3ccc[nH]c3=O)c3ccccc3c2=O)cc1 [Example 15, 2-(4-tert-butylphenyl)-4-[(2-oxo-1H-pyridin-3-yl)amino]phthalazin-1-one] | 132
16 | COc1ccc2c(Nc3cccn(C)c3=O)nn(-c3ccc(OC(F)(F)F)cc3)c(=O)c2c1 [Example 16, 7-methoxy-4-[(1-methyl-2-oxo-3-pyridyl)amino]-2-[4-(trifluoromethoxy)phenyl]phthalazin-1-one] | 12
17 | Cn1cccc(Nc2nn(-c3ccc(OC(F)(F)F)cc3)c(=O)c3c(F)cccc23)c1=O [Example 17, 8-fluoro-4-[(1-methyl-2-oxo-3-pyridyl)amino]-2-[4-(trifluoromethoxy)phenyl]phthalazin-1-one] | 100
18 | Cn1cccc(Nc2nn(-c3ccc(OC(F)(F)F)cc3)c(=O)c3cccc(F)c23)c1=O [Example 18, 5-fluoro-4-[(1-methyl-2-oxo-3-pyridyl)amino]-2-[4-(trifluoromethoxy)phenyl]phthalazin-1-one] | 122

Row | Compound | IC50 [nM]
19 | COc1cccc2c(=O)n(-c3ccc(OC(F)(F)F)cc3)nc(Nc3cccn(C)c3=O)c12 [Example 19, 5-methoxy-4-[(1-methyl-2-oxo-3-pyridyl)amino]-2-[4-(trifluoromethoxy)phenyl]phthalazin-1-one] | 59500
20 | CCc1ccc2c(Nc3cccn(C)c3=O)nn(-c3ccc(C(C)(C)C)cc3)c(=O)c2c1 [Example 20, 2-(4-tert-butylphenyl)-7-ethyl-4-[(1-methyl-2-oxo-3-pyridyl)amino]phthalazin-1-one] | 4
21 | Cn1cccc(Nc2nn(-c3ccc(OC(F)(F)F)cc3)c(=O)c3c2CCCC3)c1=O [Example 21, 4-[(1-methyl-2-oxo-3-pyridyl)amino]-2-[4-(trifluoromethoxy)phenyl]-5,6,7,8-tetrahydrophthalazin-1-one] | 5
22 | Cn1cncc(Nc2nn(-c3ccc(OC(F)(F)F)cc3)c(=O)c3c2CCCC3)c1=O [Example 22, 4-[(1-methyl-6-oxo-pyrimidin-5-yl)amino]-2-[4-(trifluoromethoxy)phenyl]-5,6,7,8-tetrahydrophthalazin-1-one] | 16
23 | COC(=O)c1cc(Nc2nn(-c3ccc(OC(F)(F)F)cc3)c(=O)c3c2CCCC3)c(=O)n(C)c1 [Example 23, methyl 1-methyl-6-oxo-5-[[4-oxo-3-[4-(trifluoromethoxy)phenyl]-5,6,7,8-tetrahydrophthalazin-1-yl]amino]pyridine-3-carboxylate] | 712
24 | COC(=O)Cn1cccc(Nc2nn(-c3ccc(OC(F)(F)F)cc3)c(=O)c3c2CCCC3)c1=O [Example 24, methyl 2-[2-oxo-3-[[4-oxo-3-[4-(trifluoromethoxy)phenyl]-5,6,7,8-tetrahydrophthalazin-1-yl]amino]-1-pyridyl]acetate] | 22
25 | CN(C)CCn1cncc(Nc2nn(-c3ccc(OC(F)(F)F)cc3)c(=O)c3c2CCCC3)c1=O [Example 25, 4-[[1-[2-(dimethylamino)ethyl]-6-oxo-pyrimidin-5-yl]amino]-2-[4-(trifluoromethoxy)phenyl]-5,6,7,8-tetrahydrophthalazin-1-one] | 14
26 | Cn1cccc(Nc2nn(-c3ccc(C(C)(C)C)nc3)c(=O)c3c2CCCC3)c1=O [Example 26, 2-(6-tert-butyl-3-pyridyl)-4-[(1-methyl-2-oxo-3-pyridyl)amino]-5,6,7,8-tetrahydrophthalazin-1-one] | 25
27 | Cn1cccc(Nc2nn(-c3ccc(OC(F)F)cc3)c(=O)c3c2CCCC3)c1=O [Example 27, 2-[4-(difluoromethoxy)phenyl]-4-[(1-methyl-2-oxo-3-pyridyl)amino]-5,6,7,8-tetrahydrophthalazin-1-one] | 41
28 | Cn1cccc(Nc2nn(-c3ccc(OC(F)(F)F)cc3)c(=O)c3c2CCC3)c1=O [Example 28, 1-[(1-methyl-2-oxo-3-pyridyl)amino]-3-[4-(trifluoromethoxy)phenyl]-6,7-dihydro-5H-cyclopenta[d]pyridazin-4-one] | 8
29 | Cc1cc(Nc2nn(-c3ccc(OC(F)(F)F)cc3)c(=O)c3c2CCC3)c(=O)n(C)n1 [Example 29, 1-[(2,6-dimethyl-3-oxo-pyridazin-4-yl)amino]-3-[4-(trifluoromethoxy)phenyl]-6,7-dihydro-5H-cyclopenta[d]pyridazin-4-one] | 22
30 | Cn1cncc(Nc2nn(-c3ccc(OC(F)(F)F)cc3)c(=O)c3c2CCC3)c1=O [Example 30, 1-[(1-methyl-6-oxo-pyrimidin-5-yl)amino]-3-[4-(trifluoromethoxy)phenyl]-6,7-dihydro-5H-cyclopenta[d]pyridazin-4-one] | 37
31 | Cn1cc(F)cc(Nc2nn(-c3ccc(OC(F)(F)F)cc3)c(=O)c3c2CCC3)c1=O [Example 31, 1-[(5-fluoro-1-methyl-2-oxo-3-pyridyl)amino]-3-[4-(trifluoromethoxy)phenyl]-6,7-dihydro-5H-cyclopenta[d]pyridazin-4-one] | 8
32 | Cc1cc(Nc2nn(-c3ccc(OC(F)(F)F)cc3)c(=O)c3c2CCC3)c(=O)n(C)c1 [Example 32, 1-[(1,5-dimethyl-2-oxo-3-pyridyl)amino]-3-[4-(trifluoromethoxy)phenyl]-6,7-dihydro-5H-cyclopenta[d]pyridazin-4-one] | 12
33 | Cn1cc(Cl)cc(Nc2nn(-c3ccc(OC(F)(F)F)cc3)c(=O)c3c2CCC3)c1=O [Example 33, 1-[(5-chloro-1-methyl-2-oxo-3-pyridyl)amino]-3-[4-(trifluoromethoxy)phenyl]-6,7-dihydro-5H-cyclopenta[d]pyridazin-4-one] | 6
34 | Cn1cc(C(F)(F)F)cc(Nc2nn(-c3ccc(OC(F)(F)F)cc3)c(=O)c3c2CCC3)c1=O [Example 34, 1-[[1-methyl-2-oxo-5-(trifluoromethyl)-3-pyridyl]amino]-3-[4-(trifluoromethoxy)phenyl]-6,7-dihydro-5H-cyclopenta[d]pyridazin-4-one] | 195
35 | CCc1cc(Nc2nn(-c3ccc(OC(F)(F)F)cc3)c(=O)c3c2CCC3)c(=O)n(C)c1 [Example 35, 1-[(5-ethyl-1-methyl-2-oxo-3-pyridyl)amino]-3-[4-(trifluoromethoxy)phenyl]-6,7-dihydro-5H-cyclopenta[d]pyridazin-4-one] | 68
36 | CC(C)c1cc(Nc2nn(-c3ccc(OC(F)(F)F)cc3)c(=O)c3c2CCC3)c(=O)n(C)c1 [Example 36, 1-[(5-isopropyl-1-methyl-2-oxo-3-pyridyl)amino]-3-[4-(trifluoromethoxy)phenyl]-6,7-dihydro-5H-cyclopenta[d]pyridazin-4-one] | 579
